The record followed here is ChEMBL document CHEMBL3217713, “Synthesis and biological evaluation of primaquinechloroquine twin drug: a novel heme-interacting molecule prevents free heme and hydroxyl radical-mediated protein degradation” (Medchemcomm, 2013).

Data set [1] concerns Heme. Kind of data set: Binding affinity to heme (unknown origin).
The nature of data set [2]: Cytotoxicity against rat gastric mucosal cells assessed as cell viability at 10 to 100 uM after 16 hrs by MTT assay. In kind it is cell-based, Gastric mucosa. Background: Tetrazolium dyes change colour on reduction, which living cells bring about.
Data set [3] relates to Heme. Briefly: Binding affinity to heme (unknown origin) by differential spectroscopy.
Data set [4] deals with Radical scavenging activity. Briefly: Antioxidant activity assessed as DPPH free radical scavenging activity after 30 mins by spectrophotometry. It is filed as functional.
Data set [5] in a line: Iron chelating activity of the compound assessed as reduction of Fe(2)-TPTZ complex formation by UV-visible spectrophotometry. It is filed as physicochemical.
A short description of data set [6]: Antioxidant activity assessed as reduction of Fe(3)-TPTZ to Fe(2)-TPTZ complex after 5 mins by FRAP assay. In kind it is functional.
The test system of data set [7] is Heme. Kind of data set: Binding affinity to heme (unknown origin) at 2 to 20 uM by optical spectroscopy.
Data set [8] can be described thus: Antioxidant activity assessed as reduction of heme/H2O2-mediated BSA degradation at 50 uM after 1 hr by SDS-PAGE. In kind it is functional.
The nature of data set [9]: Antioxidant activity assessed as reduction of hydroxyl radical-mediated BSA damage at 50 uM after 30 mins by SDS-PAGE. It is filed as functional.

As a reminder, the Kd is the concentration at which binding is half-saturated. By IC50 is commonly meant the concentration that gives 50% inhibition.

Calls of active or inactive are those of the source. No cut-off for these calls is given here.

As to `CCN(CC)CCCC(C)Nc1ccnc2cc(Cl)ccc12` (stereo not drawn), the Ka in [1] was 5.5 ×10⁴ /M.

In the case of `COc1cc(NC(C)CCCN)c2ncccc2c1` (stereo not drawn) [PRIMAQUINE], the Activity entry in data set [2] is on record as “Toxic”.

The molecule `COc1cc(NC(C)CCCNc2ccnc3cc(Cl)ccc23)c2ncccc2c1` (stereo not drawn) had a Kapp in data set [3] of 2.3 ×10⁴ /M. The Kd came out at 4.34 µM in [3] and 5.19 µM in [5]. Besides, the Activity entry in [4] was “Dose-dependent effect”; in [2], “Non-toxic”; in data set [6], 30 µM. In addition, the IC50 in data set [4] stood at 23 µM. Moreover, the result in data set [7], in [8] and in data set [9] was Active.

In the case of `O=C(O)c1cc(O)c(O)c(O)c1`, the Activity in [6] amounted to 33.9 µM.
